US9023354B2, “Combination therapy with MDM2 and EFGR inhibitors” (priority 2010, dated 2015)
pEC50, pIC50: −log10 of the molar value. Read-outs that look alike come from different tables or passages of the source.

Columns and labels:
A431 cells [1] = assay: A431 cell proliferation assay (MTT), alone and in combination with Tarceva; format: cell-based; settings: for synergistic effects with Tarceva in A431 cell proliferation (in words) / A431 Cell Proliferation CI Value: combination with Tarceva; for A431 Cell Proliferation CI Value: CI <0.8 indicates synergy
Method: This example describes an assay that measures the ability of compounds to inhibit the proliferation of cultured cells. This assay can also be used to assess whether combining two or more compounds produces additive, synergistic, or antagonistic effects on cell growth.
On day 1, the cells were seeded at 10^3 cells per well in 100 μl of complete media under standard conditions.
On day 2, the cells were washed and 100 μl serum free media was added. The cells were then incubated for at least 2 hours before the addition of compound(s). 20 μl of compound(s) was added to the respective wells and incubated at 37° C., 5% CO2 for 72 hrs.
On day 5, 50 μl of the MTT dye solution was added to each well. The plates were incubated at 37° C., 5% CO2 for 1 hr. The media was then aspirated and the cells were resuspended in […] of DMSO. The plates were allowed to incubate for 5 min at room temperature with gentle shaking.
The absorbance in each well was determined at 560 nm using a Polarstar plate reader.
The A431 cell line over-expresses the EGF receptor, and was utilized to assess the ability of AD4 compounds to inhibit EGF-mediated cell proliferation.

p53/MDM2 binding = p53/MDM2 binding (Homo sapiens (Human), UniProt Q00987); assay: AlphaScreen measurement of p53/MDM2 interaction (truncated GST-MDM2 aa 1-150)
Method: The following example describes an assay that measured the ability of compounds to inhibit the binding of p53 to MDM2 using the AlphaScreen assay technology (PerkinElmer). […] Recombinant, truncated, human, N-terminal GST-MDM2 (aa 1-150) was obtained from GeneScript. Wild-type, full length human N-terminal 6-his p53 was purchased from SignalChem.
Resulting in a final reaction volume of 24 μl PBS, 0.1% Tween-20, and 10% glycerol, 30 ng of MDM2 was added, followed by the addition of 10 of compound diluted in 100% DMSO that provided a final DMSO concentration of 4%. 30 ng of p53 was then added, mixed, and incubated at room temperature for 1 hour. Glutathione donor beads and Nickel acceptor beads (0.5 μg each; PerkinElmer) were added under subdued lighting conditions to a final reaction volume of 30 μl/well in a 96 well, ½ volume Proxima plate. The reaction was incubated at room temperature with shaking for 18 hrs in the dark. Analysis was then performed on a PerkinElmer EnSpire plate reader to determine the ability of compounds to inhibit the binding of p53 to MDM2.

[2] = target: p53/MDM2 binding (full length MDM2) (Homo sapiens (Human), UniProt Q00987); assay: AlphaScreen p53/MDM2 binding with full length GST-MDM2; settings: FIG. 1, read-out: inhibition of p53/MDM2 binding EC50
[3] = tested on: p53-induced reporter gene activity; assay: p53 reporter gene assay in HEK293 cells; format: cell-based; settings: 10 μM
Method: This example describes an assay that measures the ability of compounds to stimulate p53-induced reporter gene activity. In order for p53 activity to be observed, the interaction of p53 with MDM2 must be inhibited. Methods are according to Examples 1-5 unless otherwise specified.
HEK293 cells were transiently transfected with the inducible p53-responsive firefly luciferase reporter and constitutively-expressing Renilla construct. After 16 hrs of transfection at 37° C., 5% CO2, the transfection media was removed and 200 μl/well of assay media was added. The cells were then incubated for 8 hrs at 37° C., 5% CO2.
[…] of compound(s) was added to the cells and incubated for 16 hrs at 37° C. and 5% CO2. The cells were carefully washed with 200 μl of PBS. 20 μl_of lysis buffer was then added to each well and incubated at room temperature for 15 minutes with shaking.
The lysis buffer supernatant was transferred to a white/opaque CoStar 96-well plate and 100 μl of firefly luceriferase assay substrate was added. The luminescence in each well was determined using a Polarstar plate reader.
100 μl of Stop and Glow reagent was added to each well, mixed, and the luminescence generated by the Renilla luciferase was determined using a Polarstar plate reader. The Renilla signal was used to normalize the transfection efficiency and cell viability.

A431 cells [4] = assay: Caspase 3/7 activity, measurement of apoptosis; format: cell-based; settings: 10 μM compared to 10 μM Tarceva
[5] = Stability toward liver microsome incubation; format: in vitro ADME
[6] = Homo sapiens, A-431, A431 cells, further studies, Example 9, Table 7A, read-out: A431 Cell Proliferation (IC50 Value)
[7] = Homo sapiens, A-431, A431 cells, preliminary assessment, Example 8, Table 6A, read-out: A431 Cell Proliferation (IC50)
[8] = Table 7C, read-out: p53/MDM2 IC50 Value
[9] = Table 9, read-out: Inhibition of p53/MDM2 Binding IC50 Value
[10] = A431 cells, further studies, Example 9, Table 7A, read-out: A431 Cell Proliferation (IC50 Value)
[11] = A431 cells, preliminary assessment, Example 8, Table 6A, read-out: A431 Cell Proliferation (IC50)

Sequence of p53/MDM2 binding (Q00987 1-150): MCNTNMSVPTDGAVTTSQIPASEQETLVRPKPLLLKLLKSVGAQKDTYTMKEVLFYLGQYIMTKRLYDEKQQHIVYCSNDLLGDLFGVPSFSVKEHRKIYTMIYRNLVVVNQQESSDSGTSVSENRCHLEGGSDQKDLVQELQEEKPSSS
Sequence of p53/MDM2 binding (full length MDM2) (Q00987 whole entry): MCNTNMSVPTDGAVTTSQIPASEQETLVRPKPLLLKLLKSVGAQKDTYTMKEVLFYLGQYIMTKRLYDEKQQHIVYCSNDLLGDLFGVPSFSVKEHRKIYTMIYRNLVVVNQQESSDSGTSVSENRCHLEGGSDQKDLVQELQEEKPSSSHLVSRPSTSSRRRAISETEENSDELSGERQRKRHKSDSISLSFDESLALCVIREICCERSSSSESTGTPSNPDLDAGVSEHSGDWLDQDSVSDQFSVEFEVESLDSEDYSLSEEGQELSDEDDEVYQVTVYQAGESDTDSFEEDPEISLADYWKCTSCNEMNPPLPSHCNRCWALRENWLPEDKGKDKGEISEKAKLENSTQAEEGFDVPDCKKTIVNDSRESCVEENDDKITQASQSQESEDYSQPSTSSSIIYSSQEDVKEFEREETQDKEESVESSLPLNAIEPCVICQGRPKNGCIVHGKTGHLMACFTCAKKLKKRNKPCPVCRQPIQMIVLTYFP

Row | SMILES | pIC50 (A431 cells [1]; [6]) | pIC50 (A431 cells [1]; [7]) | pIC50 (p53/MDM2 binding; [8]) | pIC50 (p53/MDM2 binding; [9]) | pEC50 [2] | pIC50 (A431 cells [1]; [10]) | pIC50 (A431 cells [1]; [11]) | stability (toward liver microsome incubation) [5] | synergistic effects with Tarceva in A431 cell proliferation (in words) (A431 cells [1]) | A431 Cell Proliferation CI Value (A431 cells [1]; Example 8, Table 6B) | A431 Cell Proliferation CI Value (A431 cells [1]; Example 9, Table 7B) | stimulation of p53 reporter gene activity [3] [fold] | Caspase 3/7 activity % Increase Relative to Tarceva (A431 cells [4]) [%]
1 | Cc1ccc(C)c(C(Nc2cccnc2)c2cc(Cl)c3cccnc3c2O)c1 (stereo not shown) [AD4-10944] |  |  |  |  |  | 5.74 | 5.74 |  |  |  |  | 7.5 | 
2 | CCOc1ccc(C(Nc2ccccn2)c2cc(Cl)c3cccnc3c2O)cc1 (stereo not shown) [AD4-10953] |  |  |  |  |  |  |  |  |  |  |  | 9.7 | 
3 | Cc1ccc2c(C)nc(Nc3nc(-c4ccccc4C)cc(=O)[nH]3)nc2c1 [AD4-11511] |  |  | 5.37 |  |  | 6.00 | 6.00 |  |  | 0.89 | 0.89 |  | 
4 | Cc1cc(Cl)cnc1NC(c1ccc(C(F)(F)F)cc1)c1ccc2cccnc2c1O (stereo not shown) [AD4-13041] | 5.70 |  |  |  |  |  |  | increased stability over AD4-10628 |  |  | 0.69 |  | 

Further lines, with some results ahead:

Row | pIC50 (A431 cells [1]; [6]) | pIC50 (A431 cells [1]; [7]) | pIC50 (p53/MDM2 binding; [8]) | pIC50 (p53/MDM2 binding; [9]) | pEC50 [2] | pIC50 (A431 cells [1]; [10]) | pIC50 (A431 cells [1]; [11]) | stability (toward liver microsome incubation) [5] | SMILES | synergistic effects with Tarceva in A431 cell proliferation (in words) (A431 cells [1]) | A431 Cell Proliferation CI Value (A431 cells [1]; Example 8, Table 6B) | A431 Cell Proliferation CI Value (A431 cells [1]; Example 9, Table 7B) | stimulation of p53 reporter gene activity [3] [fold] | Caspase 3/7 activity % Increase Relative to Tarceva (A431 cells [4]) [%]
5 | 5.43 | 5.43 | 5.44 | 5.38 | 6.57 |  |  |  | COc1ccc(C(Nc2cc(C)ccn2)c2ccc3cccnc3c2O)cc1O (stereo not shown) [AD4-1505] | produced the greatest effects | 0.45 | 0.29 | 42.5 | 45
6 |  |  | 4.74 | 4.74 |  | 5.44 | 5.44 |  | Oc1c(C(Nc2ccccn2)c2ccccc2Cl)ccc2cccnc12 (stereo not shown) [AD4-10482] |  | 0.54 | 0.89 |  | 21
7 |  |  | 4.74 | 4.74 |  | 5.49 | 5.49 |  | Oc1c(C(Nc2cccnc2)c2ccc(C(F)(F)F)cc2)ccc2cccnc12 (stereo not shown) [AD4-10942] |  | 0.60 | 0.57 |  | 72
8 | 5.47 | 5.47 | 5.70 | 5.70 | 7.00 |  |  |  | Cc1ccnc(NC(c2ccc3cccnc3c2O)c2sccc2C)c1 (stereo not shown) [AD4-10963] | produced the greatest effects | 0.43 | 0.63 |  | 38
9 | 5.59 |  | 5.04 | 5.04 |  |  |  |  | Cc1ccnc(NC(c2ccccc2Cl)c2ccc3cccnc3c2O)c1 (stereo not shown) [AD4-12907] |  |  | 0.71 |  | 
